The values below come from US8471005B2 (Cephalon, Inc., priority 2008, dated 2013).

Assay [1] addresses T1, ALK (Homo sapiens, UniProt Q9UM73).
T1 construct: host or cells: baculovirus expression system
Put plainly: ALK Kinase Assay (ELISA/TRF, PLC-γ substrate). It is filed as biochemical. Particulars: ALK kinase inhibition, 1 μM ATP; read-out: ALK Potency. A digest of the protocol:
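Wells were coated with 10 μg/mL phospholipase C-γ substrate in TBS, and the reaction was started by adding 30 ng/ml ALK enzyme and run at 37° C for 15 minutes. Phosphorylated product was detected with Eu-N1-labeled PT66 antibody, and IC50 values came from sigmoidal variable-slope fits of percent inhibition against log concentration.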

The target of assay [2] is T2, JAK2 (Homo sapiens, UniProt O60674).
T2 construct: host or cells: baculovirus expression system
T2 sequence (O60674 whole entry): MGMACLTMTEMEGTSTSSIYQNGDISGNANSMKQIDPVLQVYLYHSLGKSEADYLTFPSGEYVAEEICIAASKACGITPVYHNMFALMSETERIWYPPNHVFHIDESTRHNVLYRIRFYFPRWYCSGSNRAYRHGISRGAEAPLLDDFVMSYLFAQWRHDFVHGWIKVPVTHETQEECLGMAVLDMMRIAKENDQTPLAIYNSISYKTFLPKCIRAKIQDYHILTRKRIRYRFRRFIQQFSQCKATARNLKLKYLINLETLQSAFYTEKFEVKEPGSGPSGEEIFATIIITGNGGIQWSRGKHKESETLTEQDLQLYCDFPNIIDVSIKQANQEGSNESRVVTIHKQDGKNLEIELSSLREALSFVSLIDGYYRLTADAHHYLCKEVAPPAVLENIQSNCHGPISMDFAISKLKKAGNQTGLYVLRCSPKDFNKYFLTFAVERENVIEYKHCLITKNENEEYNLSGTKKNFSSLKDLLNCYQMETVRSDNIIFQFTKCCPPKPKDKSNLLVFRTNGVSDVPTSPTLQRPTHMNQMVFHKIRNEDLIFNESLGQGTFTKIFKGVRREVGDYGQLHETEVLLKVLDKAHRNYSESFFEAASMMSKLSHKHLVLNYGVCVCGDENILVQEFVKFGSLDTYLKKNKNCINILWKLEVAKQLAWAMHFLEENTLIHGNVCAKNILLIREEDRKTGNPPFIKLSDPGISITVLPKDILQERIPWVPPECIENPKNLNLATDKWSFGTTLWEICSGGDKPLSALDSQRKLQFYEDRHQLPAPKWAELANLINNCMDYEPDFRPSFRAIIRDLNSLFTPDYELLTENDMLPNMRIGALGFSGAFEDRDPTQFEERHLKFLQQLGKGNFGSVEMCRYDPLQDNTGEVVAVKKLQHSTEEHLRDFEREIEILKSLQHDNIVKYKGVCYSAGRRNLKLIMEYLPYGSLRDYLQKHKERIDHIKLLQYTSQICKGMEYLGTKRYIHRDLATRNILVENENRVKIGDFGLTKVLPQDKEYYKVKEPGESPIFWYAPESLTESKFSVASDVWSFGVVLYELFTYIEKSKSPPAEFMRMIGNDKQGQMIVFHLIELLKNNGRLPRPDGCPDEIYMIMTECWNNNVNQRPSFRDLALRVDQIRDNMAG
Description: Recombinant Human JAK2 Kinase Assay (TRF). As to conditions: JAK2 kinase inhibition, 0.2 μM ATP; read-out: JAK2 Potency. Type of assay: biochemical. In short, it runs like this:
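Europium-labelled PY100 antibody reported tyrosine phosphorylation of a Neutravidin-captured biotinyl 15-mer peptide by JAK2 (baculovirus-expressed, 15 ng/ml). Conditions: 20 mM HEPES pH 7.2, 0.2 μM ATP, 1 mM MnCl2, 0.1% BSA, DMSO 2.5% final, 20 min at room temperature.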

T1 sequence (Q9UM73 19-1620): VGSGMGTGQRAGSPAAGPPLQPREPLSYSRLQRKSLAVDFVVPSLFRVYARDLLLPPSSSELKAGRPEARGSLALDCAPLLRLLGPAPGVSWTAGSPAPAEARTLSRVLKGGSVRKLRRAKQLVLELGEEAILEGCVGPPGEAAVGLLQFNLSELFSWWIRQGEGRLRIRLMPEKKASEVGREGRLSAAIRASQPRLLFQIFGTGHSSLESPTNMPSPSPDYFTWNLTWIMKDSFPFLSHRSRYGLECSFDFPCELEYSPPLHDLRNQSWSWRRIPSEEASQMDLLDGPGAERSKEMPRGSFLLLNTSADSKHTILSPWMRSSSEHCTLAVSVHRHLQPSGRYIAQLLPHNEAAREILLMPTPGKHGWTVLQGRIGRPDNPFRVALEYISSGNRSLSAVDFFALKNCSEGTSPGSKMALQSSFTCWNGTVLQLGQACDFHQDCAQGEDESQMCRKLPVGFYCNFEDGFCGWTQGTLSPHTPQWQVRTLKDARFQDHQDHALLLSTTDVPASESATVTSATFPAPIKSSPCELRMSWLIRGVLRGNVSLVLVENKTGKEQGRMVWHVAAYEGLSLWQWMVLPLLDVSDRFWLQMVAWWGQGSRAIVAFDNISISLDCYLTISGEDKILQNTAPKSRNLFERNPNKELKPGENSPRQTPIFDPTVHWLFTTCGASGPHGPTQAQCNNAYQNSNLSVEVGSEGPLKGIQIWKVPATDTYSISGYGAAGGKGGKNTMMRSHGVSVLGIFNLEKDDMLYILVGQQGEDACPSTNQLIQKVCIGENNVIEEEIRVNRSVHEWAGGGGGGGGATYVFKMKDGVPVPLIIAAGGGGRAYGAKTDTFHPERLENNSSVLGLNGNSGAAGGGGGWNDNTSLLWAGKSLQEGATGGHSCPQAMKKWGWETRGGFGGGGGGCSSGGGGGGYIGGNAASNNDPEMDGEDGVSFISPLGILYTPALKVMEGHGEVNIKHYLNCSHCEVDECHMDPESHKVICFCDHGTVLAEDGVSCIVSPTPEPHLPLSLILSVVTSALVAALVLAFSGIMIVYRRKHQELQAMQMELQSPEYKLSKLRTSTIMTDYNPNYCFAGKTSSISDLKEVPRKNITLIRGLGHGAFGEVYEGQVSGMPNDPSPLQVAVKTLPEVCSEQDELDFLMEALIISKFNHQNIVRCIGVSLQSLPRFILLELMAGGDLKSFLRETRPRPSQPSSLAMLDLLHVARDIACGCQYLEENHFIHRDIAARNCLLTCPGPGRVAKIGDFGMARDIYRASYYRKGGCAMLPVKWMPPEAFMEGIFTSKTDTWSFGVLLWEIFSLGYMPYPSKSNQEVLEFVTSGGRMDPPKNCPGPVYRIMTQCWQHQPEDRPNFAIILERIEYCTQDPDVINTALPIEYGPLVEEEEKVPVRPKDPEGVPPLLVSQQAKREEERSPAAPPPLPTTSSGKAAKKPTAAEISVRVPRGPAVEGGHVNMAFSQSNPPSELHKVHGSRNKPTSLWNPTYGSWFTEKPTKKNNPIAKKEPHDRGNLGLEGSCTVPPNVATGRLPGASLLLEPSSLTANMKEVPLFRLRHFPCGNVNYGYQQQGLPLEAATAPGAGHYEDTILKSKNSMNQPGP

As for `CN1CCN(c2ccc(Nc3ncc4ccc(C5=CCC(S(C)(=O)=O)CC5)n4n3)cc2)CC1` (stereo not shown) [Example 620, [7-(4-Methanesulfonyl-cyclohex-1-enyl)-pyrrolo[2,1-f][1,2,4]triazin-2-yl]-[4-(4-methyl-piperazin-1-yl)-phenyl]-amine], the IC50 in assay [1] is 100 to 1000 nM; in assay [2], below 100 nM.
The matching figures for `CN(c1ccccc1-c1ccc2cnc(Nc3ccc(Cn4ccnc4)cc3)nn12)S(C)(=O)=O` [Example 621, N-{2-[2-(4-Imidazol-1-ylmethylphenylamino)-pyrrolo[2,1-f][1,2,4]triazin-7-yl]phenyl}-N-methyl-methanesulfonamide]: below 100 nM and below 100 nM.
Turning to `CN(c1ccccc1-c1ccc2cnc(-n3ccnc3)nn12)S(C)(=O)=O` [Example 622, N-[2-(2-Imidazol-1-yl-pyrrolo[2,1-f][1,2,4]triazin-7-yl)-phenyl]-N-methyl-methanesulfonamide], the values for the IC50 in assay [1] and in assay [2] were 1000 to 10000 nM and below 100 nM, respectively.
With `CN(c1ccccc1-c1ccc2cnc(Nc3ccc4c(c3)CCCC(=O)N4)nn12)S(C)(=O)=O` [Example 623, N-Methyl-N-{2-[2-(2-oxo-2,3,4,5-tetrahydro-1H-benzo[b]azepin-7-ylamino)-pyrrolo[2,1-f][1,2,4]triazin-7-yl]-phenyl}-methanesulfonamide], the IC50 in assay [1] and in assay [2] was below 100 nM each time.
For the compound `CN(c1ccccc1-c1ccc2cnc(Nc3ccc(N4CCOCC4)cc3)nn12)S(C)(=O)=O` [Example 626, N-Methyl-N-{2-[2-(4-morpholin-4-yl-phenylamino)pyrrolo[2,1-f][1,2,4]triazin-7-yl]phenyl}methanesulfonamide], the IC50 in assay [1] was 100 to 1000 nM; in assay [2], below 100 nM.
In the case of `Cc1cc(Nc2ncc3ccc(-c4ccccc4N(C)S(C)(=O)=O)n3n2)cc2oc(=O)[nH]c12` [Example 628, N-Methyl-N-{2-[2-(4-methyl-2-oxo-2,3-dihydrobenzooxazol-6-ylamino)-pyrrolo[2,1-f][1,2,4]triazin-7-yl]phenyl}methanesulfonamide], the values for the IC50 in assay [1] and in assay [2] were 100 to 1000 nM and below 100 nM, respectively.
Regarding `CC(=O)N1CCCCc2ccc(Nc3ncc4ccc(-c5ccccc5N(C)S(C)(=O)=O)n4n3)cc21` [Example 630, N-{2-[2-(1-Acetyl-2,3,4,5-tetrahydro-1H-benzo[b]azepin-8-ylamino)-pyrrolo[2,1-f][1,2,4]triazin-7-yl]phenyl}-N-methylmethanesulfonamide], the figures for the IC50 in assay [1] and in assay [2] were 1000 to 10000 nM and below 100 nM, respectively.
Consider `COc1ccc(-c2ccc3cnc(Nc4ccc5c(c4)N(C(C)=O)CCCC5)nn23)cn1` [Example 631, 1-{8-[7-(6-Methoxy-pyridin-3-yl)-pyrrolo[2,1-f][1,2,4]triazin-2-ylamino]-2,3,4,5-tetrahydro-benzo[b]azepin-1-yl}ethanone], for which the IC50 was above 10000 nM in assay [1] and below 100 nM in assay [2].
For the compound `CN(c1ccccc1-c1ccc2cnc(Nc3ccc4c(c3)C(C)(C)C(=O)N4)nn12)S(C)(=O)=O` [Example 632, N-{2-[2-(3,3-Dimethyl-2-oxo-2,3-dihydro-1H-indol-5-ylamino)-pyrrolo[2,1-f][1,2,4]triazin-7-yl]phenyl}N-methyl-methanesulfonamide], the IC50 in assay [1] and in assay [2] was below 100 nM throughout.
With `CC(=O)N1CCCCc2ccc(Nc3ncc4ccc(-c5cccc(NS(C)(=O)=O)c5)n4n3)cc21` [Example 633, N-{3-[2-(1-Acetyl-2,3,4,5-tetrahydro-1H-benzo[b]azepin-8-ylamino)-pyrrolo[2,1-f][1,2,4]triazin-7-yl]-phenyl}methanesulfonamide], the figures for the IC50 in assay [1] and in assay [2] were 1000 to 10000 nM and below 100 nM, respectively.
As to `CN(c1ccccc1-c1ccc2cnc(OC3CCN(c4ccc(N)cc4)CC3)nn12)S(C)(=O)=O` [Example 634, N-(2-{2-[1-(4-Amino-phenyl)-piperidin-4-yloxy]-pyrrolo[2,1-f][1,2,4]triazin-7-yl}-phenyl)-N-methyl-methanesulfonamide], the IC50 lay within 1000 to 10000 nM in assay [1] and 100 to 1000 nM in assay [2].
`CN(c1ccccc1-c1ccc2cnc(Nc3ccc(N4CCC(O)CC4)cc3)nn12)S(C)(=O)=O` [Example 635, N-(2-{2-[4-(4-Hydroxy-piperidin-1-yl)-phenylamino]pyrrolo[2,1-f][1,2,4]triazin-7-yl}phenyl)-N-methylmethanesulfonamide]: the IC50 was 100 to 1000 nM in assay [1] and below 100 nM in assay [2].
As to `CS(=O)(=O)Nc1cccc(-c2ccc3cnc(Nc4ccc(N5CCC(N6CCOCC6)CC5)cc4)nn23)c1` [Example 636, N-(3-{2-[4-(4-Morpholin-4-yl-piperidin-1-yl)-phenylamino]-pyrrolo[2,1-f][1,2,4]triazin-7-yl}-phenyl)-methanesulfonamide], the values for the IC50 in assay [1] and in assay [2] were 100 to 1000 nM and below 100 nM, respectively.
For the compound `COc1ccc(-c2ccc3cnc(Nc4ccc5c(c4)COCCN5C)nn23)cn1` [Example 637, [7-(6-Methoxy-pyridin-3-yl)-pyrrolo[2,1-f][1,2,4]triazin-2-yl]-(1-methyl-1,2,3,5-tetrahydro-benzo[e][1,4]oxazepin-7-yl)-amine], the results for the IC50 in assay [1] and in assay [2] were 1000 to 10000 nM and below 100 nM, respectively.
In the case of `CN1C(=O)COc2cc(Nc3ncc4ccc(-c5cccc(NS(C)(=O)=O)c5)n4n3)ccc21` [Example 638, N-{3-[2-(4-Methyl-3-oxo-3,4-dihydro-2H-benzo[1,4]oxazin-7-ylamino)-pyrrolo[2,1-f][1,2,4]triazin-7-yl]-phenyl}methanesulfonamide], the IC50 is 100 to 1000 nM in assay [1] and below 100 nM in assay [2].
Turning to `COc1ccccc1-c1ccc2cnc(Nc3ccc4c(c3)N(C(C)=O)CCCC4)nn12` [Example 639, 1-{8-[7-(2-Methoxyphenyl)-pyrrolo[2,1-f][1,2,4]triazin-2-ylamino]-2,3,4,5-tetrahydrobenzo[b]azepin-1-yl}ethanone], the IC50 was 1000 to 10000 nM in assay [1] and below 100 nM in assay [2].
With `CN1C(=O)COc2cc(Nc3ncc4ccc(-c5ccccc5N(C)S(C)(=O)=O)n4n3)ccc21` [Example 640, N-Methyl-N-{2-[2-(4-methyl-3-oxo-3,4-dihydro-2H-benzo[1,4]oxazin-7-ylamino)-pyrrolo[2,1-f][1,2,4]triazin-7-yl]-phenyl}-methanesulfonamide], the IC50 in assay [1] is 100 to 1000 nM; in assay [2] it was below 100 nM.
For the compound `CN1CCOc2ccc(Nc3ncc4ccc(-c5ccccc5N(C)S(C)(=O)=O)n4n3)cc21` [Example 641, N-Methyl-N-{2-[2-(4-methyl-3,4-dihydro-2H-benzo[1,4]oxazin-6-ylamino)-pyrrolo[2,1-f][1,2,4]triazin-7-yl]-phenyl}methanesulfonamide], the values for the IC50 in assay [1] and in assay [2] were 100 to 1000 nM and below 100 nM, respectively.
For `CN1CCOc2ccc(Nc3ncc4ccc(-c5cccnc5)n4n3)cc21` [Example 642, (4-Methyl-3,4-dihydro-2H-benzo[1,4]oxazin-6-yl)-(7-pyridin-3-yl-pyrrolo[2,1-f][1,2,4]triazin-2-yl)-amine], the IC50 in assay [1] was 1000 to 10000 nM; in assay [2], below 100 nM.
As to `CN1CCOc2ccc(Nc3ncc4ccc(-c5cccc(NS(C)(=O)=O)c5)n4n3)cc21` [Example 643, N-{3-[2-(4-Methyl-3,4-dihydro-2H-benzo[1,4]oxazin-6-ylamino)-pyrrolo[2,1-f][1,2,4]triazin-7-yl]-phenyl}methanesulfonamide], the IC50 in assay [1] is 100 to 1000 nM; in assay [2] it was below 100 nM.
`COc1ccc(-c2ccc3cnc(Nc4ccc5c(c4)N(C)CCO5)nn23)cn1` [Example 644, [7-(6-Methoxy-pyridin-3-yl)-pyrrolo[2,1-f][1,2,4]triazin-2-yl]-(4-methyl-3,4-dihydro-2H-benzo[1,4]oxazin-6-yl)-amine]: the IC50 in assay [1] is 1000 to 10000 nM; in assay [2] it was below 100 nM.
For `COc1ccccc1-c1ccc2cnc(Nc3ccc4c(c3)N(C)CCO4)nn12` [Example 645, [7-(2-Methoxy-phenyl)-pyrrolo[2,1-f][1,2,4]triazin-2-yl]-(4-methyl-3,4-dihydro-2H-benzo[1,4]oxazin-6-yl)-amine], the IC50 in assay [1] is 100 to 1000 nM; in assay [2], below 100 nM.
Take `Cn1cc(-c2ccc3cnc(Nc4ccc5c(c4)NC(=O)C5)nn23)cn1` [Example 646, 6-[7-(1-Methyl-1H-pyrazol-4-yl)-pyrrolo[2,1-f][1,2,4]triazin-2-ylamino]-1,3-dihydro-indol-2-one]: the IC50 in assay [1] is 1000 to 10000 nM; in assay [2] it was below 100 nM.
The matching figures for `COc1ccccc1-c1ccc2cnc(Nc3ccc4c(c3)OCC(=O)N4C)nn12` [Example 647, 7-[7-(2-Methoxy-phenyl)-pyrrolo[2,1-f][1,2,4]triazin-2-ylamino]-4-methyl-4H-benzo[1,4]oxazin-3-one]: 100 to 1000 nM and below 100 nM.
As to `CN1C(=O)COc2cc(Nc3ncc4ccc(-c5cccc(S(=O)(=O)NC(C)(C)C)c5)n4n3)ccc21` [Example 648, N-tert-Butyl-3-[2-(4-methyl-3-oxo-3,4-dihydro-2H-benzo[1,4]oxazin-7-ylamino)-pyrrolo[2,1-f][1,2,4]triazin-7-yl]-benzenesulfonamide], the IC50 in assay [1] is 100 to 1000 nM; in assay [2] it was below 100 nM.
Take `CN1C(=O)COc2cc(Nc3ncc4ccc(-c5cccnc5)n4n3)ccc21` [Example 649, 4-Methyl-7-(7-pyridin-3-yl-pyrrolo[2,1-f][1,2,4]triazin-2-ylamino)-4H-benzo[1,4]oxazin-3-one]: the IC50 in assay [1] is 1000 to 10000 nM; in assay [2] it was below 100 nM.
